In series [1] the test system is ARPE-19 cells. Put plainly: cells. Type of series: cell-based. Conditions: for concentration range providing improvement in cell viability / concentration at which high toxicity was observed (microscopy, loss of cell adherence): 24 h; for concentration range providing improvement in cell viability: compared to untreated cells (CTL); for concentration at which high toxicity was observed (microscopy, loss of cell adherence): ARPE-19, serum starvation medium (1% FBSM); for cell mortality: ARPE-19, serum starvation, 50 µM; for IC50: Homo sapiens, MTT, read-out: IC50 (concentration leading to 50% of cell viability). As to the method: ARPE-19 cells were obtained from ATCC, and maintained in Dulbecco’s Modified Eagle’s Medium (DMEM)/Ham F12 (GIBCO) containing 10% (v/v) fetal bovine serum (FBS) and 1% (v/v) penicillin/streptomycin under a humidified (95%)/CO2 (5%) atmosphere at 37 °C. For splitting and experiments, cells were dissociated with 0.25% trypsin-EDTA, re-suspended in the culture medium and then plated at 1–3 × 10^5 cells/mL. Cells were cultured and used up to a maximum of 10 passages.
Cell viability was determined by the MTT colorimetric assay. Cells were incubated for 2 h with MTT reagent (0.5 mg/mL). The absorbance at 570 nm and 655 nm of individual wells was measured using a microplate reader (BioRad 550). The percentage of viable cells was calculated as [(OD570 sample – OD655 sample)/(OD570 control – OD655 control)] × 100%.
ARPE-19 cells were plated into 96-well plates (3 × 10^4 cells/well) and cultured for 24 h to reach confluence before DHA treatment. The cells were treated in medium with 1% FBS (1% FBSM), or with H2O2 prepared in medium with FBS (1%, v/v) to a final concentration of 600 μM. Cells were then treated with DHA, D2-DHA and D4-DHA, at different concentrations (0–80 μm) for 24 h. Control cells were incubated with DMSO (0.2%). After 4 h, cell viability was determined in triplicate using the MTT colorimetric assay. Results were expressed in percentage of viable cells normalized with control conditions in the absence of PUFA and H2O2 stress.
Sigmoidal doses-responses linked to the toxicity were obtained using GraphPad prism software, allowing to calculate IC50 values described as the concentration leading to 50% of cell viability.

Series [2] deals with ARPE-19 cells. Put plainly: Lipid peroxidation status with C11-Bodipy581/591 probe (FACS) under oxidative conditions. The settings on record: ARPE-19, 50 µM for 24 h. Type of series: cell-based. The procedure:
ARPE-19 cells were plated into 2 cm^2 wells (2 × 10^5 cells/well) and cultured for 24 h to reach confluence before PUFA or lipophenol treatment. The cell cultures were treated with 1% FBSM containing tested compounds (deuterated DHAs or deuterated lipophenols) at 50 μM for 24 h and then rinsed with media before the incubation of 5 µM C11-Bodipy^581/591 for 30 min. Then, the cells were rinsed and treated with the different stressors, corresponding to different protocols. For chemical stress the cells were incubated with 400 µM of H2O2 during 24 h followed by FACS analysis. For photobleaching stress, the cells were exposed to a white LED lamp with an intensity of 5000 lux at room temperature during 1 h followed by the FACS analysis.
FACS was performed with the BD Accuri C6 Flow Cytometer and BD Accuri C6 Software for data acquisition (BD Biosciences). This flow cytometer is equipped with an excitation laser at 488 nm, and a fluorescence detector FL1 533/30 nm. Data were collected to 10,000 events for each sample using a flow rate of 35 µL/min. Parameters obtained for data analysis included: cell size from the forward scatter (FSC), granularity from the side scatter (SSC) and the green fluorescence of the stained cells with C11-Bodipy^581/591.
First the SSC-A versus FSC-A dot-plot was used to gate the cellular population and remove the cellular debris. Then the SSC-A versus SSC-H dot-plot was used to remove cell doublets in the previous gate to give a final gate. The cellular population in the last gate designed was plotted on count versus log green fluorescence to give the fluorescence mean intensity of FL1. The mean FL1 values were normalized to the cells only stained with C11-Bodipy^581/591.

For the next series, the target named is T1, 15-sLOX (Glycine max, UniProt P08170).
T1 sequence (P08170 1-839): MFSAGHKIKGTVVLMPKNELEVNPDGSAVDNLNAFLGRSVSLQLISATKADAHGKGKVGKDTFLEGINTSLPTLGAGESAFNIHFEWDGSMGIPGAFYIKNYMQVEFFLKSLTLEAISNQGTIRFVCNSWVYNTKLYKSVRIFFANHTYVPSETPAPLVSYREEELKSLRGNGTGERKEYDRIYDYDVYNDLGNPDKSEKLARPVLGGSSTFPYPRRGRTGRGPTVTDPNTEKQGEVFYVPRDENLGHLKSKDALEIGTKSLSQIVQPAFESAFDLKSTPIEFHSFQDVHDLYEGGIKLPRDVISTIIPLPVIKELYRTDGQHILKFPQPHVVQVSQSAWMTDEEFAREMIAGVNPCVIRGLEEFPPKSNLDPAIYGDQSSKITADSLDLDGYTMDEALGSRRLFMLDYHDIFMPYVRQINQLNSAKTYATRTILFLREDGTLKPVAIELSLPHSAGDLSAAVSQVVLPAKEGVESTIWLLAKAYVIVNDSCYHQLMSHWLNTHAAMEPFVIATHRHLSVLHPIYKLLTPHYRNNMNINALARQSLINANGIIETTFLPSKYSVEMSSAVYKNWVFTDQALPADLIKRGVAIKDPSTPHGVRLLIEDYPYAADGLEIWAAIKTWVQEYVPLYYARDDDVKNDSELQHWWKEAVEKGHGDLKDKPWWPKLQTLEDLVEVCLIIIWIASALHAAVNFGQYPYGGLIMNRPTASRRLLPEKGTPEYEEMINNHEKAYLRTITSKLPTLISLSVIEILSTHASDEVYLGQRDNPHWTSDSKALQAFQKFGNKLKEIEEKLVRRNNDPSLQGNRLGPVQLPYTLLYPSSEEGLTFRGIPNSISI
Put plainly: Kinetics parameters of 15s-LOX (UV 270 nm, Michaelis-Menten). Conditions: monitored at 270 nm. The format is biochemical, Glycine max (soybean). As to the method:
The activity of 15-sLOX was monitored on a Beckman Coulter DU730 Life Sciences UV-visible spectrometer at a wavelength of 270 nm monitoring the conjugated triene structure in the dihydroxylation products. For the measurements a reaction mixture of DHA or deuterated DHA (0.02 mM; 0.04 mM; 0.1 mM and 0.2 mM) was prepared in 750 µL sodium borate buffer (50 mM, pH 9) by ultrasonification for 10 s. The reaction was subsequently initiated by the addition of 10 µL 15-sLOX (4 mg/mL) to make a total volume of 760 µL in a Hellma CEL2056 quartz cuvette with 1 cm path length (20 °C). The initial reaction rates (V(0)), derived from the recorded UV-absorbance using the law of Lambert-Beer (molar extinction coefficient = 40,000), were plotted against the respective DHA concentrations and fitted to Michaelis-Menten kinetics in GraphPad Prism 7.0. All V(0) values were determined in triplicate and the average of three independent experiments was plotted against the substrate concentrations to yield Michaelis-Menten kinetics.

Where [3] appears, read: ARPE-19, 24 h incubation, H2O2 (600 µM) 4 h.
[4] abbreviates: ARPE-19, serum starvation (1% FBSM), 24 h incubation.
The mark [5] stands for this setting: serum starvation (1% FBSM) 24 h.
Where [6] appears, read: serum starvation (1% FBSM) 48 h.

Where two headings read alike, the source gives them in different places.

`[2H]C([2H])(C=CCC=CCC=CCC=CCC)C=CC([2H])([2H])C=CCCC(=O)O` [D4-DHA, (6,6,9,9-D4)-DHA] came in with a cell survival in the series with ARPE-19 cells [1] (ARPE-19, 1% FBSM, 70 µM) of 125%. In addition, the “concentration range providing improvement in cell viability” value with ARPE-19 cells [1] (ARPE-19, 1% FBSM) lay within 0 to 70 µM. The “concentration at which high toxicity was observed (microscopy, loss of cell adherence)” value with ARPE-19 cells [1] lay within 70 to 75 µM. Further, the cell mortality result in the series on ARPE-19 cells [1] was “did not induced cell mortality”. For the same molecule, the IC50 in the series with ARPE-19 cells [1] (setting [3]) stood at 76.2 ± 2.26 µM; with ARPE-19 cells [1] (setting [4]) it was 75.6 ± 1.05 µM. In addition, the “lipid peroxidation status (C11-BODIPY fluorescence)” value (shortened to “lipid peroxidation status”) in the series on ARPE-19 cells [2] (setting [5]) is on record as “decreased lipid peroxidation status with the same efficiency, reaching oxidation levels of untreated cells”; with ARPE-19 cells [2] (setting [6]), “reach radical levels close to untreated cells”; in the series with ARPE-19 cells [2] (then H2O2 400 µM 24 h), “more effective than D2-DHA”. Moreover, the “15s-LOX activity for the double hydroxylation product” value (shortened to “15s-LOX activity”) at 15-sLOX is recorded as “no substantial differences”.
Turning to `[2H]C([2H])(/C=C\C/C=C\C/C=C\C/C=C\C/C=C\CC)/C=C\CCC(=O)O` [D2-DHA, (6,6-D2)-DHA], in the series with ARPE-19 cells [1] (ARPE-19, 1% FBSM), the “concentration range providing improvement in cell viability” value was in the range of 0 to 65 µM. In the series with ARPE-19 cells [1], the “concentration at which high toxicity was observed (microscopy, loss of cell adherence)” value was in the range of 65 to 70 µM and the cell mortality result is listed as “did not induced cell mortality”. Further, in the series with ARPE-19 cells [1] (setting [3]), the IC50 came out at 67 ± 1.89 µM. Further, the IC50 with ARPE-19 cells [1] (setting [4]) turned out to be 69.5 ± 1.46 µM. The “lipid peroxidation status” value in the series with ARPE-19 cells [2] (setting [5]) is given as “decreased lipid peroxidation status with the same efficiency, reaching oxidation levels of untreated cells”. The “15s-LOX activity” value on 15-sLOX was “no substantial differences”.
In the case of `CC/C=C\C/C=C\C/C=C\C/C=C\C/C=C\C/C=C\CCC(=O)O` [Natural DHA, docosahexaenoic acid, reference compound], in the series on ARPE-19 cells [1] (ARPE-19, 1% FBSM), the “concentration range providing improvement in cell viability” value is 0 to 60 µM. The “concentration at which high toxicity was observed (microscopy, loss of cell adherence)” value with ARPE-19 cells [1] is 60 to 65 µM. Further, the cell mortality entry in the series with ARPE-19 cells [1] is given as “did not induced cell mortality”. Also, the IC50 in the series with ARPE-19 cells [1] (setting [3]) is 65.5 ± 1.87 µM; with ARPE-19 cells [1] (setting [4]) it was 65.2 ± 1.03 µM. Besides, the “lipid peroxidation status” value is “increase in lipid peroxidation status compared to untreated cells” with ARPE-19 cells [2] (setting [6]); “increase of oxidation” in the series on ARPE-19 cells [2] (then H2O2 400 µM 24 h); “increase in lipid peroxidation under photobleaching-stress” in the series with ARPE-19 cells [2] (then photobleaching (white light, 5000 lux, 1 h)). The “15s-LOX activity” value at 15-sLOX is “no substantial differences”.

The values are drawn from publication PMC6826779, “Bis-allylic Deuterated DHA Alleviates Oxidative Stress in Retinal Epithelial Cells” (Antioxidants, 2019).
